Laboratory results reported in patent US20090131258A1, “HERBICIDE COMPOSITIONS FOR UPLAND FARMING AND CONTROL METHOD” (priority 2004, published 2009).
Read-outs that look alike come from different tables or passages of the source.

How the values were obtained:
Assay type in all cases: in vivo
[1] = system: Alopecurus myosuroides Huds.; assay: Foliar application test on Alopecurus myosuroides Huds. in upland field condition; settings: 672 h, fresh weight day 28, read-out: Inhibitory rate (%); for inhibition at 1000 g/ha: dose 1000 g a.i./ha; for inhibition at 2000 g/ha: dose 2000 g a.i./ha
Text: Next, Test Examples of the herbicide compositions according to the invention will be presented. In the following Test Examples, the ingredient (A) was mixed with the ingredient (B), (C), (D), (E) or (F) in practice. As a result, an effect exceeding the effect expected from the effects achieved by using the individual ingredients solely (i.e., a synergistic effect) was observed. The term “synergistic effect” means the effect achieved in the case where the effect achieved by two or more chemicals acting simultaneously exceeds the additive effect expected from the activities of the respective chemicals used solely. The activity expected by using a specific combination of two herbicides (hereinafter called “expectation”) can be calculated in accordance with the following Colby's formula (refer to Colby, S. R., Weeds, 15, p. 20 to 22 (1967)).
(§1) E=X+Y−(X×Y/100) Numerical formula 1
(§2) (In the above formula, E represents an inhibitory rate expected in the case of applying a mixture of p kg/ha of a herbicide A and q kg/ha of another herbicide B. X represents the inhibitory rate achieved by the application of p kg/ha of the herbicide A. Y represents the inhibitory rate achieved by the application of q kg/ha of the herbicide B.)
(§3) When the effect achieved by the mix application in practice exceeds the value E, the combination can be regarded as achieving a synergistic effect. Inhibitory rate was determined in accordance with the following numerical formula 2.
(§4) Inhibitory rate(%)=(1−fresh weight in treated lot/fresh weight in untreated lot)×100 Numerical formula 2
A resin vat having an area of 200 cm^2 was filled with upland soil that was diluvial clay loam soil. After fertilization, Alopecurus myosuroides Huds. was sowed and the seeds were evenly covered with the soil. Then, the plants were grown under controlled conditions in a greenhouse. When the test weeds grew to the 2.0 to 2.5 leaf stage, each herbicide having been diluted at a definite concentration and mixed was uniformly sprayed to the foliage with a small-sized high pressure sprayer. The preparation containing the ingredient (A) alone was prepared in accordance with Formulation Example 1 but adding diatomaceous earth to compensate for the decrease in the ingredient (B), (C) or (F). As the preparations respectively containing the ingredients (B) and (C) alone, marketed flowables were employed. As the preparation containing the ingredient (F) alone, a marketed emulsifiable concentrate was employed. The mixed preparations were prepared by mixing the same. Then, the plants were grown under controlled conditions in the greenhouse. On the day 28 after the application, the fresh weight of the above-ground part of each weed was measured and the inhibitory rate (%) was determined in accordance with Numerical Formula 2 and the expectation was calculated in accordance with Numerical Formula 1, Tables 2 and 3 show the results.

[2] = system: Stellaria media Villars; assay: Foliar application test on Stellaria media Villars in upland field condition; settings: day 28
Text: (§5) Next, Test Examples of the herbicide compositions according to the invention will be presented. In the following Test Examples, the ingredient (A) was mixed with the ingredient (B), (C), (D), (E) or (F) in practice. […] The term “synergistic effect” means the effect achieved in the case where the effect achieved by two or more chemicals acting simultaneously exceeds the additive effect expected from the activities of the respective chemicals used solely.
as §1, §2, §3, §4
(§6) A resin vat having an area of 200 cm^2 was filled with upland soil that was diluvial clay loam soil. After fertilization, Stellaria media Villars and Matricaria inodora L. were sowed and the seeds were evenly covered with the soil. Then, the plants were grown under controlled conditions in a greenhouse. When the test weeds grew to the 2.0 to 2.5 leaf stage, each herbicide having been diluted at a definite concentration and mixed was uniformly sprayed to the foliage with a small-sized high pressure sprayer. […] As the preparation containing the ingredient (D) alone, marketed wettable granules were employed. As the preparation containing the ingredient (E) alone, a marketed flowable was employed. The mixed preparations were prepared by mixing the same. Then, the plants were grown under controlled conditions in the greenhouse.

[3] = system: Matricaria inodora L.; assay: Foliar application test on Matricaria inodora L. in upland field condition; settings: day 28
Text: as §5, §1, §2, §3, §4, §6

[4] = Table 5, single ingredient, dose 2 g a.i./ha
[5] = Table 5, single ingredient, dose 4 g a.i./ha
[6] = Table 4, single ingredient, dose 5 g a.i./ha
[7] = Table 4, single ingredient, dose 10 g a.i./ha

In the case of `CC(C)c1ccc(NC(=O)N(C)C)cc1` [(B), isoproturon], the inhibition at 1000 g/ha ([1]; Table 2, single ingredient) is reported as 69% and the inhibition at 2000 g/ha ([1]; Table 2, single ingredient) is reported as 90%.

`COc1ncc(F)c2nc(S(=O)(=O)Nc3c(F)cccc3F)nn12` [(E), florasulam] was tested, and the “Inhibitory rate (%)” value [2, 4] was 75%, the “Inhibitory rate (%)” value [2, 5] was 90% and the “Inhibitory rate (%)” value [3, 4] was 70%. For the same molecule, the “Inhibitory rate (%)” value [3, 5] was 80%.

Molecule `CCCN(CCC)c1c([N+](=O)[O-])cc(C(F)(F)F)cc1[N+](=O)[O-]` [(F), trifluralin] has an inhibition at 1000 g/ha ([1]; Table 3, single ingredient) of 55% and an inhibition at 2000 g/ha ([1]; Table 3, single ingredient) of 85%.

In the case of `COC(=O)c1ccc(C(F)(F)F)nc1S(=O)(=O)[N-]C(=O)Nc1nc(OC)cc(OC)n1.[Na+]` [(D), sodium salt of flupyrsulfuron-methyl], the “Inhibitory rate (%)” value [2, 6] is reported as 77%, the “Inhibitory rate (%)” value [2, 7] is reported as 85% and the “Inhibitory rate (%)” value [3, 6] is reported as 46%. The “Inhibitory rate (%)” value [3, 7] was 67%.

With `CCC(CC)Nc1c([N+](=O)[O-])cc(C)c(C)c1[N+](=O)[O-]` [(C), pendimethalin] the inhibition at 1000 g/ha ([1]; Table 2, single ingredient) was 16% and the inhibition at 2000 g/ha ([1]; Table 2, single ingredient) was 22%.
